Assay results published in PubChem BioAssay AID1963866 (Molecular Pharmacology Branch, DTP, NCI, 2024).
pIC50: −log10 of the molar value.

System: PDC KRAS tumor spheroids with HUVEC/MSC, viability
Test: Anticancer human tumor 349418-098-R-PDC patient-derived lung adenocarcinoma cell line growth inhibition [KRAS2]
Conditions: for pIC50: curve of first compound; for viability, T/C: stronger effect = lower value
Summary of the method: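 KRAS-mutant tumor cells were grown as spheroids with HUVEC endothelial cells and human MSCs as stroma. Targeted agents were tested alone and with KRAS pathway inhibitors. Doses started at or near clinical Cmax, or 10 microM, descending half-log.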

[1] = second compound 0.0316 µM, first compound 0.000316 µM
[2] = second compound 0.0316 µM, first compound 0.001 µM
[3] = second compound 0.0316 µM, first compound 0.00316 µM
[4] = second compound 0.0316 µM, first compound 0.01 µM
[5] = second compound 0.0316 µM, first compound 0.0316 µM
[6] = second compound 0.1 µM, first compound 0.000316 µM
[7] = second compound 0.1 µM, first compound 0.001 µM
[8] = second compound 0.1 µM, first compound 0.00316 µM
[9] = second compound 0.1 µM, first compound 0.01 µM
[10] = second compound 0.1 µM, first compound 0.0316 µM
[11] = second compound 0.316 µM, first compound 0.000316 µM
[12] = second compound 0.316 µM, first compound 0.001 µM
[13] = second compound 0.316 µM, first compound 0.00316 µM
[14] = second compound 0.316 µM, first compound 0.01 µM
[15] = second compound 0.316 µM, first compound 0.0316 µM
[16] = second compound 1 µM, first compound 0.000316 µM
[17] = second compound 1 µM, first compound 0.001 µM
[18] = second compound 1 µM, first compound 0.00316 µM
[19] = second compound 1 µM, first compound 0.01 µM
[20] = second compound 1 µM, first compound 0.0316 µM
[21] = second compound 3.16 µM, first compound 0.000316 µM
[22] = second compound 3.16 µM, first compound 0.001 µM
[23] = second compound 3.16 µM, first compound 0.00316 µM
[24] = second compound 3.16 µM, first compound 0.01 µM
[25] = second compound 3.16 µM, first compound 0.0316 µM
[26] = second compound 0.1 µM, first compound 0.1 µM
[27] = second compound 0.316 µM, first compound 0.1 µM
[28] = second compound 1 µM, first compound 0.1 µM
[29] = second compound 3.16 µM, first compound 0.1 µM
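Further: spheroids exposed to compounds for seven days before readout.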

CC(=O)Nc1cccc(-n2c(=O)n(C3CC3)c(=O)c3c(Nc4ccc(I)cc4F)n(C)c(=O)c(C)c32)c1 + C=CC(=O)N1CCN(c2nc(OCC3CCCN3C)nc3c2CCN(c2cccc4cccc(C)c24)C3)CC1CC#N
pIC50 (second compound 0.0316 µM): > 10.00 | pIC50 (second compound 0.1 µM): > 10.00 | pIC50 (second compound 0.316 µM): > 10.00 | pIC50 (second compound 1 µM): > 10.00 | pIC50 (second compound 3.16 µM): > 10.00 | viability, T/C (second compound 0.0316 µM, first compound 0.0001 µM): 41.1% | viability, T/C [1]: 20.2% | viability, T/C [2]: 14.8% | viability, T/C [3]: 12.2% | viability, T/C [4]: 8.59% | viability, T/C [5]: 6.57% | viability, T/C (second compound 0.1 µM, first compound 0.0001 µM): 34.7% | viability, T/C [6]: 20.9% | viability, T/C [7]: 16.1% | viability, T/C [8]: 10.9% | viability, T/C [9]: 9.4% | viability, T/C [10]: 6.86% | viability, T/C (second compound 0.316 µM, first compound 0.0001 µM): 35.8% | viability, T/C [11]: 21.8% | viability, T/C [12]: 16.8% | viability, T/C [13]: 12.6% | viability, T/C [14]: 8.68% | viability, T/C [15]: 6.94% | viability, T/C (second compound 1 µM, first compound 0.0001 µM): 30.4% | viability, T/C [16]: 23.3% | viability, T/C [17]: 13.3% | viability, T/C [18]: 9.39% | viability, T/C [19]: 7.58% | viability, T/C [20]: 6.58% | viability, T/C (second compound 3.16 µM, first compound 0.0001 µM): 0.51% | viability, T/C [21]: 0.21% | viability, T/C [22]: 0.19% | viability, T/C [23]: 0.46% | viability, T/C [24]: 0.21% | viability, T/C [25]: 0.34%

Cn1ncnc1[C@H]1c2n[nH]c(=O)c3cc(F)cc(c23)N[C@@H]1c1ccc(F)cc1 + C=CC(=O)N1CCN(c2nc(OCC3CCCN3C)nc3c2CCN(c2cccc4cccc(C)c24)C3)CC1CC#N
pIC50 (second compound 0.0316 µM): < 7.00 | pIC50 (second compound 0.1 µM): < 7.00 | pIC50 (second compound 0.316 µM): < 7.00 | pIC50 (second compound 1 µM): < 7.00 | pIC50 (second compound 3.16 µM): > 9.50 | viability, T/C [1]: 98.3% | viability, T/C [2]: 93.3% | viability, T/C [3]: 84.3% | viability, T/C [4]: 85.5% | viability, T/C [5]: 86.8% | viability, T/C (second compound 0.0316 µM, first compound 0.1 µM): 74.9% | viability, T/C [6]: 93.7% | viability, T/C [7]: 96.9% | viability, T/C [8]: 83.6% | viability, T/C [9]: 80.3% | viability, T/C [10]: 74.3% | viability, T/C [26]: 75.9% | viability, T/C [11]: 94.8% | viability, T/C [12]: 97.9% | viability, T/C [13]: 85.7% | viability, T/C [14]: 85.7% | viability, T/C [15]: 79.2% | viability, T/C [27]: 68% | viability, T/C [16]: 84.4% | viability, T/C [17]: 82.8% | viability, T/C [18]: 68.6% | viability, T/C [19]: 75.2% | viability, T/C [20]: 70.2% | viability, T/C [28]: 58.8% | viability, T/C [21]: 0.16% | viability, T/C [22]: 0.14% | viability, T/C [23]: 2.18% | viability, T/C [24]: 1.01% | viability, T/C [25]: 0.72% | viability, T/C [29]: 0.18%

CCNC(=O)CC1N=C(c2ccc(Cl)cc2)c2cc(OC)ccc2-n2c(C)nnc21 (stereo not given) + COc1cc2nc(C)nc(NC(C)c3cc(N)cc(C(F)(F)F)c3)c2cc1OC1CCOC1
pIC50 (second compound 0.1 µM): 7.03 | pIC50 (second compound 0.316 µM): 6.97 | pIC50 (second compound 1 µM): 7.00 | pIC50 (second compound 3.16 µM): 7.25 | pIC50 (second compound 10 µM): > 7.50 | viability, T/C [10]: 80% | viability, T/C [26]: 48% | viability, T/C (second compound 0.1 µM, first compound 0.316 µM): 20.6% | viability, T/C (second compound 0.1 µM, first compound 1 µM): 7.27% | viability, T/C (second compound 0.1 µM, first compound 3.16 µM): 2.39% | viability, T/C (second compound 0.1 µM, first compound 10 µM): 0.58% | viability, T/C [15]: 105% | viability, T/C [27]: 51.4% | viability, T/C (second compound 0.316 µM, first compound 0.316 µM): 21.9% | viability, T/C (second compound 0.316 µM, first compound 1 µM): 7.39% | viability, T/C (second compound 0.316 µM, first compound 3.16 µM): 2.09% | viability, T/C (second compound 0.316 µM, first compound 10 µM): 0.7% | viability, T/C [20]: 85.2% | viability, T/C [28]: 49.9% | viability, T/C (second compound 1 µM, first compound 0.316 µM): 16.4% | viability, T/C (second compound 1 µM, first compound 1 µM): 6.15% | viability, T/C (second compound 1 µM, first compound 3.16 µM): 1.76% | viability, T/C (second compound 1 µM, first compound 10 µM): 0.68% | viability, T/C [25]: 65.5% | viability, T/C [29]: 34.8% | viability, T/C (second compound 3.16 µM, first compound 0.316 µM): 13.5% | viability, T/C (second compound 3.16 µM, first compound 1 µM): 5.23% | viability, T/C (second compound 3.16 µM, first compound 3.16 µM): 1.41% | viability, T/C (second compound 3.16 µM, first compound 10 µM): 0.77% | viability, T/C (second compound 10 µM, first compound 0.0316 µM): 17% | viability, T/C (second compound 10 µM, first compound 0.1 µM): 10.3% | viability, T/C (second compound 10 µM, first compound 0.316 µM): 6.19% | viability, T/C (second compound 10 µM, first compound 1 µM): 1.96% | viability, T/C (second compound 10 µM, first compound 3.16 µM): 0.42% | viability, T/C (second compound 10 µM, first compound 10 µM): 0.33%
